In PubChem BioAssay (NCI):
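96-well plates; 48 h exposure; 5 concentrations. Endpoints by linear interpolation between flanking doses. Not reached: highest tested concentration assigned. TGI: concentration producing complete growth inhibition.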

Key:
Assay in all cases: NCI tumour cell line growth inhibition, 48 h
M14 melanoma = tested on: M14 melanoma
HS 578T breast = tested on: HS 578T breast
TK-10 renal = tested on: TK-10 renal
KM12 colon = tested on: KM12 colon
NCI-H226 lung = tested on: NCI-H226 lung
OVCAR-4 ovarian = tested on: OVCAR-4 ovarian
EKVX NSCLC = tested on: EKVX NSCLC
MCF7 breast = tested on: MCF7 breast
SNB-19 CNS = tested on: SNB-19 CNS
OVCAR-5 ovarian = tested on: OVCAR-5 ovarian
HOP-92 NSCLC = tested on: HOP-92 NSCLC
U251 CNS = tested on: U251 CNS
MALME-3M melanoma = tested on: MALME-3M melanoma
NCI-H460 lung = tested on: NCI-H460 lung
HCC-2998 colon = tested on: HCC-2998 colon
HCT-15 colon = tested on: HCT-15 colon
SN12C renal = tested on: SN12C renal
SF-268 CNS = tested on: SF-268 CNS
NCI-H522 lung = tested on: NCI-H522 lung
COLO 205 colon = tested on: COLO 205 colon
786-0 renal = tested on: 786-0 renal
LOX IMVI melanoma = tested on: LOX IMVI melanoma
SW-620 colon = tested on: SW-620 colon
MDA-MB-435 = tested on: MDA-MB-435
UACC-257 melanoma = tested on: UACC-257 melanoma
SK-MEL-2 melanoma = tested on: SK-MEL-2 melanoma
NCI/ADR-RES ovarian = tested on: NCI/ADR-RES ovarian
CAKI-1 renal = tested on: CAKI-1 renal
RXF 393 renal = tested on: RXF 393 renal
SK-OV-3 ovarian = tested on: SK-OV-3 ovarian
A549 NSCLC = tested on: A549 NSCLC
K-562 leukemia = tested on: K-562 leukemia
UO-31 renal = tested on: UO-31 renal
IGROV1 ovarian = tested on: IGROV1 ovarian
MDA-MB-231 breast = tested on: MDA-MB-231 breast
HOP-62 NSCLC = tested on: HOP-62 NSCLC
NCI-H23 lung = tested on: NCI-H23 lung
SF-539 CNS = tested on: SF-539 CNS
BT-549 breast = tested on: BT-549 breast
OVCAR-3 ovarian = tested on: OVCAR-3 ovarian
MDA-N = tested on: MDA-N
MOLT-4 leukemia = tested on: MOLT-4 leukemia
DU-145 prostate = tested on: DU-145 prostate
CCRF-CEM leukemia = tested on: CCRF-CEM leukemia
RPMI-8226 leukemia = tested on: RPMI-8226 leukemia
ACHN renal = tested on: ACHN renal
SK-MEL-28 melanoma = tested on: SK-MEL-28 melanoma
SNB-75 CNS = tested on: SNB-75 CNS
SF-295 CNS = tested on: SF-295 CNS
A498 renal = tested on: A498 renal
UACC-62 melanoma = tested on: UACC-62 melanoma
HT29 colon = tested on: HT29 colon
HL-60(TB) leukemia = tested on: HL-60(TB) leukemia
PC-3 prostate = tested on: PC-3 prostate
SR leukemia = tested on: SR leukemia
OVCAR-8 ovarian = tested on: OVCAR-8 ovarian
HCT-116 colon = tested on: HCT-116 colon
T-47D breast = tested on: T-47D breast
SK-MEL-5 melanoma = tested on: SK-MEL-5 melanoma

S=c1[nH]n2c(COc3cccc(OCc4nnc5sc(=S)[nH]n45)c3)nnc2s1
TGI (M14 melanoma): > 100 µM | TGI (HS 578T breast): > 100 µM | TGI (TK-10 renal): > 100 µM | TGI (KM12 colon): > 100 µM | TGI (NCI-H226 lung): > 100 µM | TGI (OVCAR-4 ovarian): > 100 µM | TGI (EKVX NSCLC): > 100 µM | TGI (MCF7 breast): > 100 µM | TGI (SNB-19 CNS): > 100 µM | TGI (OVCAR-5 ovarian): > 100 µM | TGI (HOP-92 NSCLC): > 100 µM | TGI (U251 CNS): > 100 µM | TGI (MALME-3M melanoma): > 100 µM | TGI (NCI-H460 lung): > 100 µM | TGI (HCC-2998 colon): > 100 µM | TGI (HCT-15 colon): > 100 µM | TGI (SN12C renal): > 100 µM | TGI (SF-268 CNS): > 100 µM | TGI (NCI-H522 lung): > 100 µM | TGI (COLO 205 colon): > 100 µM | TGI (786-0 renal): > 100 µM | TGI (LOX IMVI melanoma): > 100 µM | TGI (SW-620 colon): > 100 µM | TGI (MDA-MB-435): > 100 µM | TGI (UACC-257 melanoma): > 100 µM | TGI (SK-MEL-2 melanoma): > 100 µM | TGI (NCI/ADR-RES ovarian): > 100 µM | TGI (CAKI-1 renal): > 100 µM | TGI (RXF 393 renal): > 100 µM | TGI (SK-OV-3 ovarian): > 100 µM | TGI (A549 NSCLC): > 100 µM | TGI (K-562 leukemia): > 100 µM | TGI (UO-31 renal): > 100 µM | TGI (IGROV1 ovarian): > 100 µM | TGI (MDA-MB-231 breast): > 100 µM | TGI (HOP-62 NSCLC): > 100 µM | TGI (NCI-H23 lung): > 100 µM | TGI (SF-539 CNS): > 100 µM | TGI (BT-549 breast): > 100 µM | TGI (OVCAR-3 ovarian): > 100 µM | TGI (MDA-N): > 100 µM | TGI (MOLT-4 leukemia): > 100 µM | TGI (DU-145 prostate): > 100 µM | TGI (CCRF-CEM leukemia): > 100 µM | TGI (RPMI-8226 leukemia): > 100 µM | TGI (ACHN renal): > 100 µM | TGI (SK-MEL-28 melanoma): > 100 µM | TGI (SNB-75 CNS): > 100 µM | TGI (SF-295 CNS): > 100 µM | TGI (A498 renal): > 100 µM | TGI (UACC-62 melanoma): > 100 µM | TGI (HT29 colon): > 100 µM | TGI (HL-60(TB) leukemia): 72.1 µM | TGI (PC-3 prostate): > 100 µM | TGI (SR leukemia): > 100 µM | TGI (OVCAR-8 ovarian): > 100 µM | TGI (HCT-116 colon): > 100 µM | TGI (T-47D breast): > 100 µM

O=C(CCc1cc(O)cc(O)c1)NCCc1cc(O)cc(O)c1
TGI (M14 melanoma): > 100 µM | TGI (HS 578T breast): > 100 µM | TGI (TK-10 renal): > 100 µM | TGI (KM12 colon): > 100 µM | TGI (NCI-H226 lung): > 100 µM | TGI (EKVX NSCLC): > 100 µM | TGI (MCF7 breast): > 100 µM | TGI (SNB-19 CNS): > 100 µM | TGI (OVCAR-5 ovarian): > 100 µM | TGI (HOP-92 NSCLC): > 100 µM | TGI (U251 CNS): > 100 µM | TGI (SK-MEL-5 melanoma): > 100 µM | TGI (NCI-H460 lung): > 100 µM | TGI (HCC-2998 colon): > 100 µM | TGI (HCT-15 colon): > 100 µM | TGI (SN12C renal): > 100 µM | TGI (SF-268 CNS): > 100 µM | TGI (NCI-H522 lung): > 100 µM | TGI (COLO 205 colon): > 100 µM | TGI (786-0 renal): > 100 µM | TGI (LOX IMVI melanoma): > 100 µM | TGI (SW-620 colon): > 100 µM | TGI (MDA-MB-435): > 100 µM | TGI (UACC-257 melanoma): > 100 µM | TGI (SK-MEL-2 melanoma): > 100 µM | TGI (NCI/ADR-RES ovarian): > 100 µM | TGI (CAKI-1 renal): > 100 µM | TGI (RXF 393 renal): > 100 µM | TGI (SK-OV-3 ovarian): > 100 µM | TGI (A549 NSCLC): > 100 µM | TGI (K-562 leukemia): > 100 µM | TGI (UO-31 renal): > 100 µM | TGI (IGROV1 ovarian): > 100 µM | TGI (MDA-MB-231 breast): > 100 µM | TGI (HOP-62 NSCLC): > 100 µM | TGI (NCI-H23 lung): > 100 µM | TGI (SF-539 CNS): > 100 µM | TGI (BT-549 breast): > 100 µM | TGI (OVCAR-3 ovarian): > 100 µM | TGI (MDA-N): > 100 µM | TGI (MOLT-4 leukemia): > 100 µM | TGI (DU-145 prostate): > 100 µM | TGI (RPMI-8226 leukemia): > 100 µM | TGI (ACHN renal): > 100 µM | TGI (SK-MEL-28 melanoma): > 100 µM | TGI (SNB-75 CNS): > 100 µM | TGI (SF-295 CNS): > 100 µM | TGI (A498 renal): > 100 µM | TGI (UACC-62 melanoma): > 100 µM | TGI (HT29 colon): > 100 µM | TGI (PC-3 prostate): > 100 µM | TGI (SR leukemia): > 100 µM | TGI (OVCAR-8 ovarian): > 100 µM | TGI (HCT-116 colon): > 100 µM | TGI (T-47D breast): > 100 µM
